# Laboratory results taken from US20180203025A1, “HDL THERAPY MARKERS” (Cerenis Therapeutics Holding SA, priority 2014, published 2018).
# What was measured:
# SR-BI in mouse liver = assay: SR-BI protein content in mouse liver; assay type: in vivo; conditions: 24 hours after the last injection; increasing concentrations
# Experimental: This study examined the SR-BI and ABCA1 protein content in the liver 24 hours after the last injection of CER-001. A piece of liver (50 mg) was lysed in PBS (500 μL) by brief sonication. The sample was centrifuged (800×g for 10 minutes) and the pellet was discarded. The supernatant was centrifuged for 30 minutes at 16,000×g at 4° C. and the pellet was solubilized with PBS 1% Triton X100 (200 μL). 10 μg of solubilized pellet was loaded on SDS PAGE 10% and ABCA1 expression (ab7360—dilution 1/1000) or SR-BI expression (ab24603—dilution 1/1000) was quantified using imageJ® software.
# [1] = tested on: total plaque volume in a 30 mm segment of the target coronary artery; assay: CHI SQUARE phase II trial, IVUS first approach; assay type: in vivo, human
# From the text: 504 subjects presenting with acute chest pain or other angina equivalent symptoms, indicative of a diagnosis of ST segment elevation myocardial infarction, non-ST elevation myocardial infarction or unstable angina were enrolled. To be eligible, subjects must have angiographic evidence of coronary artery disease as defined by at least one lesion in any of the three major native coronary arteries that has >20% reduction in lumen diameter by angiographic visual estimation or prior history of percutaneous coronary intervention (“PCI”). The target vessel for PCI was not the target coronary artery for research IVUS, and any vessel with previous PCI could not be used as the target coronary artery.
# The study design is illustrated in FIG. 1. The primary endpoint was the nominal change in total plaque volume in a 30 mm segment of the target coronary artery assessed by 3 dimensional IVUS (intra-vascular ultrasound). The key secondary endpoints were % change in plaque volume and change in % atheroma volume in the target 30 mm segment, the change in total vessel volume in the target 30 mm segment, and changes in plaque, lumen and total vessel volumes from baseline in the least and most diseased 5 mm segments. Morbidity and mortality were exploratory endpoints.
# Mean total atheroma volume at baseline was 155.24±67.99 mm^3. The adjusted means for change in total atheroma volume were −2.71, −3.13, −1.50 and −3.05 mm^3 in the placebo, CER-001 3 mg/kg, CER-001 6 mg/kg and CER-001 12 mg/kg groups, respectively (p=0.81 for the prespecified primary analysis of 12 mg/kg versus placebo). There were also no differences compared to placebo for the CER-001 6 mg/kg (nominal p=0.45) and 3 mg/kg (nominal p=0.77) groups. The change in percent atheroma volume was similar among all study groups (0.02, −0.02, 0.01 and 0.19% in the placebo, CER-001 3 mg/kg (p=0.86), CER-001 6 mg/kg (p=0.95) and CER-001 12 mg/kg (p=0.53) groups (nominal p-values versus placebo).
# In contrast to the “walk-along” approach discussed below, frame pairs were individually selected for optimum readability. Frames were selected based upon absence of echogenicity (calcium) and side branches. A maximum of 31 frames were selected over a 30 mm segment, excluding the benefit of pull-backs longer than 30 mm. No pre-defined criteria were used to select the 31 frames for inclusion in analysis set when >31 frames available.
# [2] = Plasma cholesterol mobilization in apoE−/− mice; assay type: in vivo, mouse
# Experimental: The formulation was injected in the retro-orbital vein (50 μL/mouse) of mice anaesthetized with isoflurane, once every 2 days for 8 injections. The dose administered was based on the mean of mice bodyweight in each cage. The compounds were injected at 10 AM every day. For blood sampling, mice fasted overnight were sampled once at the indicated dose: (1) at predose (at 9 AM) by retro-orbital withdrawal: 24 hours before the first injection/day of surgery; (2) at postdose (at 9 AM) by retro-orbital withdrawal: 24 hours after the last injection; and (3) at t=0 (9 AM) and the indicated time points after the 5th injection by caudal withdrawal. Immediately after collection, blood samples were kept at ca. +4° C. to avoid alteration of the blood sample. Blood specimens were centrifuged (800×g for 10 minutes at +4° C.) and plasma was saved for future analysis.
# Add in each tube cholesterol standards (2 g/L): 0/0.625/1.25/1.875/2.5/3.75/5 μl. Centrifuge plasma samples at 12,000×g for 1 minute. Add 0.5 ml of the reconstituted buffer to each tube (standard and samples), vortex and incubate 5 minutes at 37° C. Transfer 150 μl from each tube to 2 different wells in a 96 well plate. Read absorbance at 500 nm.
# Add in each tube cholesterol standards (2 g/L): 0/0.625/1.25/1.875/2.5/3.75/5 μl. Centrifuge plasma samples at 12,000×g for 1 minute. Add 0.5 ml of reconstituted buffer to each tube (standard and samples), vortex and incubate 5 minutes at 37° C. Transfer 150 μl from each tube to 2 different wells in a 96 well plate. Read absorbance at 500 nm.
# This study examined the consequences of CER-001 administration on the lipoprotein profile in apoE^−/− mice fed with high fat diet. Blood was collected and analyzed at different time points after the 5th infusion. Plasma pre-dose (before the first injection) and plasma post-dose (24h after the last injection) were also compared. Plasma was analyzed for total and unesterified cholesterol and human ApoA-I contents.
# Total and unesterified cholesterol concentrations were determined according to the procotols of Sections 9.2.5 and 9.2.6, respectively. Cholesterol ester concentrations are determined after subtracted unesterified cholesterol from total cholesterol. The mobilization of cholesterol was determined on 12 mice per group after the 5th administration (1 hour before injection; 1 h, 2h, 4h and 24h after injection). The animals were fasted overnight.
substance,measurement,setting,value
"CER-001: engineered recombinant human apolipoprotein A-I HDL with sphingomyelin and DPPG; protein-to-phospholipid ratio 1:2.7, 97% Sph and 3% DPPG",liver SR-BI protein level,SR-BI in mouse liver,no significant changes
same,adjusted mean change in total atheroma volume,[1]; 3 mg/kg,−3.13 mm^3
same,change in percent atheroma volume,[1]; 3 mg/kg,−0.02%
same,adjusted mean change in total atheroma volume,[1]; 6 mg/kg,−1.50 mm^3
same,change in percent atheroma volume,[1]; 6 mg/kg,0.01%
same,adjusted mean change in total atheroma volume,[1]; 12 mg/kg,−3.05 mm^3
same,change in percent atheroma volume,[1]; 12 mg/kg,0.19%
same,plasma unesterified cholesterol concentration,"[2]; 50 mg/kg, 2 and 4 hours after infusion",seemed to increase the plasma unesterified cholesterol concentration
same,post-dose total and unesterified cholesterol concentrations compared to HDL3 treated mice,[2]; 24h after the last injection,two times higher
same,doses increasing the cholesterol concentration in plasma compared to placebo,[2]; after 8 injections,above 10 mg/kg
same,mobilization of unesterified cholesterol,[2]; after the 5th infusion,No significant changes
same,total plasma cholesterol mobilization,[2]; after the 5th infusion,No significant changes
